Measurements reported in patent publication US20240307346A1, “METHOD FOR TREATING OR PREVENTING A DISEASE OF INCOMPLETE IMMUNE RECONSTITUTION IN AIDS USING (5R)-5-HYDROXYTRIPTOLIDE” (PEKING UNION MEDICAL COLLEGE HOSPITAL, priority 2018, published 2024).
Converted amounts (≈) assume the structure as drawn.

Key:
NF-κB = NF-κB luciferase reporter (p3κB-luc) assay in HEK293T cells; assay type: cell-based; settings: for inhibition of the activity of the NF-κB signal pathway activated by TNF-α / inhibition of the activity of the background NF-κB signaling pathway: Comparative Example 2, HEK293T, FIG. 5; for inhibition of the activity of the NF-κB signal pathway activated by TNF-α: TNF-α 20 ng/ml; for inhibition of the activity of the background NF-κB signaling pathway: no TNF-α
Experimental: NF-κB driven […] expression plasmid (p3κB-luc, 100 ng) and internal reference plasmid pBgal (purchased from Bioonline: www.bioon.com.cn) (pSV-β-Galactosidase Control Vector, β-galactosidase expression plasmid, 5 ng) were transfected into HEK293T cells (purchased from ATCC). […] After another 24 hours, all cells were collected and lysed with reporter lysis buffer (purchased from Promega). Luciferase assay system (Promega) was used to detect luciferase activity. Beta-Glo Asaay system (Promega) was used to detect β-Galactosidase activity, and the inhibition effects of T8 on NF-κB activity was analyzed.
The NF-κB reporter gene plasmid p3κB-luc was transfected into HEK293T cells for expression, and pSV-β-Galactosidase Control Vector was co-transfected as transfection internal reference. The activation of NF-κB was induced by TNF-α treatment. T8 and triptolide were added respectively. The expression of NF-κB reporter gene was indicated by detecting luciferase activity, and the effect of T8 and triptolide on NF-κB activation induced by TNF-α was evaluated.
Cell transfection: HEK293T cells were transfected with lipofectamine 2000 Transfection Reagent according to the reagent instructions. 100 ng of plasmid was transfected with 1 μL of transfection reagent into each well of a 24-well cell cultureplate. The plasmid and the transfection reagent were diluted with […] of OPTI-MEM medium, respectively and then mixed together. The mixture was allowed to stand at room temperature for 5 minutes, and then added into the cells in each well. The resulting mixture was mixed gently, placed back into the 37° C. incubator, and the cells were cultured for a specified time.
Luciferase activity detection: NF-κB reporter gene plasmid p3κB-luc plasmid (100 ng), internal reference plasmid pSV-β-Galactosidase Control Vector (5 ng) were transfected into HEK293T cells. After 24 hours. TNF-α (20 ng/ml) was added (or not added) to stimulate the cells for 24 hours, and then the cells were collected and lysed with reporter lysis buffer. Luciferase assay system was used to detect luciferase activity. and Beta-Glo Asaay system was used to detect β-Galactosidase activity.

CD4+T-cells = assay: CFSE proliferation of CD4+T-cells in PHA-P stimulated PBMC; assay type: cell-based, human; settings: for inhibition of the proliferation of CD4+T-cells in healthy human peripheral blood: Comparative Example 4, PHA-P 5 μg/mL, 100 ng/mL, 72 hours, FIG. 7
Experimental: Healthy human peripheral blood mononuclear cells (PBMC) (purchased from ATCC) were cultured in RPMI-1640/10% FBS serum medium containing IL-2 (20IU). and then stained with CFSE (carboxyfluorescein diacetate succinimidy ester) (10 nM) at 37° C. for 10 minutes, washed twice with the above medium, followed by addition of PHA-P (phytohemagglutinin P) (5 μg/mL) to stimulate cell proliferation with or without addition of T8 compound (100 nM).
The cells were washed with the medium twice, PHA-P (5 μg/mL) was added, and the test compound T8 or triptolide (100 ng/mL each) was added at the same time. After 72 hours at 37° C. the cells were collected, stained with anti-CD4-PE antibody at 4°° C. for 30 minutes, and washed with FACS buffer twice. The cell proliferation was analyzed by flow cytometry.

MTT cytotoxicity test = assay type: cell-based; settings: human, HEK293T cells, read-out: CC50 (50% Cytotoxic Concentration)
Experimental: MTT colorimetric method was used to detect the cytotoxicity. HEK293T cells were seeded into 96-well plates (1×10^4/100 μL/well), 100 μL of each concentration of the compounds (compound concentration refers to the figures) was added in triplicate. Control wells without compound were setting at the same time. The cells were incubated in a 37° C. 5% CO2 cell incubator for 72 hours. 100 μL of the supernatant was aspirated from each well and discarded, followed by addition of 20 μL of MTT solution (5 mg/mL) into the wells. […] The absorbance was measured at 595 nm. The CC50 value (50% Cytotoxic Concentration) was calculated, i.e., the concentration of the compound required for producing toxicity on 50% of HEK293T cells.

CD4 counts = assay: Phase II placebo-controlled trial in HIV immunological non-responders: CD4 counts; assay type: in vivo, human; settings: for participants with a CD4 count increase over 50 cells/mm^3: placebo 34.6%; for mean absolute increase of CD4 count from baseline: week 48, placebo 32; for CD4 count at Week 48: FAS, with ART
[1] = system: interferon-γ-induced protein 10 (IP-10); assay: Phase II trial: serum IP-10; assay type: in vivo, human; set-up: mean change of serum interferon-γ-induced protein 10: unit not given here; settings: placebo −22.8; for mean change of serum IP-10 level: Week 48
Experimental: (§1) The phase II, double-blind, randomized, placebo-controlled trial was conducted in adults patients with long-term suppressed HIV infection and suboptimal CD4 recovery, at nine hospitals in China.
(§2) The patients were 1:1:1 assigned to receive oral T8 0.5 mg or 1 mg daily, or placebo combined with antiretroviral therapy for 48 weeks. All study staff and participants were masked. The study drug was recommended to be taken in the morning on an empty stomach, and be separated from participants' daily ART. Participants were followed and assessed at Week 4, 12, 24, 36 and 48 of treatment. On each scheduled visit, the investigator would assess the participant's general status, newly-onset symptoms and signs, and adverse events.
(§3) The primary endpoints of the study included 1) Absolute change of CD4 counts from baseline to week 48: 2) Proportions of participants achieving a CD4 increase ≥50 cells/mm^3 from baseline to week 48: and 3) changes of selected inflammatory markers from baseline to week 48, including interferon-y-induced protein 10 (IP-10), high-sensitivity C-reactive protein (hsCRP), and IL-6.
The primary efficacy differences between treatments on CD4 counts and inflammatory marker level were assessed through the t-test and analysis of covariance (ANCOVA) model. The ANCOVA model, including the baseline CD4 counts as the covariate, study group and center as fixed factors, generated the Least square means (LSMEANs) and relative 95% confidence interval (95% CI) in both FAS and PPS.

[2] = system: high-sensitivity C-reactive protein (hsCRP); assay: Phase II trial: hsCRP; assay type: in vivo, human; settings: 1 mg daily (HT8), Week 48
Experimental: as §1, §2, §3

IL-6 = assay: Phase II trial: IL-6; assay type: in vivo, human; settings: 1 mg daily (HT8), Week 48
Experimental: as §1, §2, §3

CD8 T cells = assay: Phase II trial: cellular activation of CD8 T cells (CD38, HLA-DR); assay type: in vivo, human; settings: among the three groups (0.5 mg, 1 mg, placebo), 62 participants
Experimental: T-cell subsets were measured using CytoFlex flow cytometer (Beckman Coulter Life Science) at participating centers, including T cells (CD45+CD3+), CD4 T cells (CD45+CD3+CD4+), and CD8 T cells (CD45+CD3+CD8+). In PUMCH Lab. exploratory CD8 markers (CD45+CD3+CD8+CD38+ and CD45+CD3+CD8+HLA-DR+) were further measured for participants in three Beijing centers.

[3] = Phase II trial: safety (adverse events); assay type: in vivo, human; settings: for participants with treatment-emergent adverse events (TEAEs): placebo 80.7%
Experimental: as §2
Safety endpoints included occurrence of adverse events (AEs) and serious adverse events (SAEs) over the study period. Adverse events included those related to the study drug; all serious adverse events; and abnormal laboratory test values at each study visit.
The efficacy analysis was based on the full analysis set (FAS), which included all randomized patients with at least one posttreatment efficacy assessment, and the per-protocol set (PPS), which included patients who completed the study with proper study drug exposure and without any major protocol violations. The safety analysis was based on the safety analysis set (SAS), which included all randomized patients who received at least one dose of study drug. All safety results were descriptive, listed and summarized.

HIV-1 = assay: Phase II trial: plasma HIV-1 viral load; assay type: in vivo, human; settings: all participants, with ART, 48 weeks
Experimental: Plasma HIV-1 viral load was measured at Peking Union Medical College Hospital (PUMCH) Lab by COBAS AmpliPrep/COBAS TaqMan V2.0 RT-PCR (Roche). The lower detection limit is 20 copies per milliliter.

CD4+T-cell subsets = assay: Activation of CD4+T-cell subsets (CD38, HLA-DR expression by flow cytometry); settings: for inhibition of immune activation of CD4+T-cell subsets by PMA+Ionomycin (CD38, HLA-DR): Comparative example 3, PMA 100 nM + Ionomycin 1 μM, 100 ng/ml; for inhibition of immune activation of CD4+T-cell subsets by PMA+Ionomycin (CD38, HLA-DR) / inhibition of immune activation of CD4+T-cell subsets by anti-CD3/CD28 antibody (CD38, HLA-DR): 72 hours; for inhibition of immune activation of CD4+T-cell subsets by anti-CD3/CD28 antibody (CD38, HLA-DR): Comparative example 3, isolated CD4+T-cells, anti-CD3/CD28 beads
Experimental: After 48 hours, the cells were stained with anti-human CD4, CD38, HLA-DR flow cytometry antibody (purchased from Invitrogen), and the CD4^+T-cells were gated by flow cytometry to detect the expression of CD38, HLA-DR molecules on the cell surface.
Freshly isolated healthy human PBMC (3×10^7 cells) were cultured in cell culture medium containing IL-2 (20 IU/mL), stimulated with PMA (100 nM) and Ionomycin (1 μM) for 72 hours, and the compound to be tested (100 ng/ml) was added at the same time: the cells were washed twice with FACS buffer, followed by addition of anti CD3-PerCP, CD4-PE, CD38-PE-Cy7. HLA-DR-APC antibodies, stained for 30 minutes at 4° C.: the cells were washed twice with FACS buffer, and the expression of the above molecules was detected by FACS.
CD4^+T-cells were isolated from freshly isolated healthy human PBMCs with anti-CD4 antibody-coated magnetic beads through positive screening and then cultured in a medium containing IL-2 (20 IU/mL). The cell activation was stimulated with anti-CD3/CD28 antibody-coated magnetic beads for 72 hours, and the compound to be tested was added at the same time. The cells were collected, washed twice with FACS buffer, followed by addition of anti CD3-PerCP, CD4-PE, CD38-PE-Cy7, HLA-DR-APC antibodies, stained at 4° C. for 30 minutes: the cells were washed twice with FACS buffer and collected, and the expression of the above molecules was detected by flow cytometry.

## CC(C)[C@]12O[C@H]1[C@@H]1O[C@]13[C@]1(O[C@H]1C[C@@]1(O)C4=C(CC[C@]31C)C(=O)OC4)[C@@H]2O [T8, (5R)-5-hydroxytriptolide]
NF-κB
  inhibition of the activity of the NF-κB signal pathway activated by TNF-α: effectively inhibit
  inhibition of the activity of the background NF-κB signaling pathway: effectively inhibit
NF-κB; Example 1, HEK293T, 100 nM, 24 h, FIG. 1
  inhibition of background NF-κB activity (untreated with TNF-alpha): effectively inhibit
NF-κB; Example 1, HEK293T, TNF-alpha 20 ng/mL, 100 nM, 24 h, FIG. 1
  inhibition of NF-κB activity stimulated by TNF-alpha: effectively inhibit
CD4+T-cells
  inhibition of the proliferation of CD4+T-cells in healthy human peripheral blood: significantly inhibit
CD4+T-cells; Example 2, PBMC, PHA-P 5 μg/mL, 100 nM, 48 h, without compound 16.6%
  proliferation of CD4+T cells stimulated by PHA (cell proliferation): 1.9%
MTT cytotoxicity test
  CC50 at 72 h: ~0.435 µg/mL (≈ 1.16 µM)
CD4 counts; 0.5 mg daily (LT8), Week 48
  participants with a CD4 count increase over 50 cells/mm^3: 45.1%
CD4 counts; 0.5 mg daily (LT8)
  mean absolute increase of CD4 count from baseline: 49 cells/mm^3
CD4 counts; 1 mg daily (HT8) over placebo
  CD4 increase in participants with a baseline CD4 count 200-350 cells/mm^3: consistent superiority
CD4 counts; 1 mg daily (HT8), Week 48
  participants achieving a CD4 increase >20% (superiority): unremarkable
  participants with a CD4 count increase over 50 cells/mm^3: 50%
CD4 counts; 1 mg daily (HT8), week 24, versus other groups
  participants achieving a CD4 increase >20%: more participants
CD4 counts; 1 mg daily (HT8)
  mean absolute increase of CD4 count from baseline: 63 cells/mm^3
CD4 counts; 1 mg daily, 48 weeks, placebo 20
  mean increase of CD4 count in participants over 45 years old: 96 cells/mm^3
CD4 counts; 0.5 mg daily oral (LT8), 48 weeks
  CD4 count at Week 48: 299 cells/mm^3
CD4 counts; 1 mg daily oral (HT8), 48 weeks
  CD4 count at Week 48: 303 cells/mm^3
CD4 counts; Week 48
  effect on CD4 in participants with a baseline CD4 count below 200 cells/mm^3: insignificant
CD4 counts; Week 48, between the three groups (0.5 mg, 1 mg, placebo)
  changes of CD4/CD8 ratio: comparable
CD4 counts; high-dose (1 mg), stratified analysis
  benefit in CD4 counts in participants receiving SARS-COV-2 vaccination: insignificant
[1]; 0.5 mg daily (LT8)
  mean change of serum IP-10 level: -42.5 pg/mL
[1]; 1 mg daily (HT8), 48 weeks
  mean change of serum interferon-γ-induced protein 10: −72.1
[1]; 1 mg daily (HT8)
  mean change of serum IP-10 level: -72.1 pg/mL
[2]
  change of HsCRP: slight decrease
IL-6
  change of IL-6: slight decrease
CD8 T cells
  surface expressions of CD38 or HLA-DR on CD8 T cells: comparable
[3]; 0.5 mg daily (LT8), 48 weeks
  participants with treatment-emergent adverse events (TEAEs): 84.3%
[3]; 0.5 mg or 1 mg daily, 48 weeks
  drug-related SAEs: No drug-related SAEs were reported
[3]; 0.5 mg or 1 mg daily, all participants
  tolerability: well-tolerated
[3]; 1 mg daily (HT8), 48 weeks
  participants with treatment-emergent adverse events (TEAEs): 89.1%
[3]; 1 mg daily (HT8), mostly neutrophil decrease and dyslipidemia
  TEAEs ≥Grade 3: slightly more frequent
HIV-1
  virological suppression during the study: virologically-suppressed
CD4+T-cell subsets
  inhibition of immune activation of CD4+T-cell subsets by PMA+Ionomycin (CD38, HLA-DR): significantly inhibit
  inhibition of immune activation of CD4+T-cell subsets by anti-CD3/CD28 antibody (CD38, HLA-DR): significantly inhibit
CD4+T-cell subsets; Example 3, PBMC, PMA 20 nM + Ionomycin 1 μM, 100 nM, 48 h, without compound 36.3%
  HLA-DRCD4/CD4: 3.5%
CD4+T-cell subsets; Example 3, PBMC, PMA 20 nM + Ionomycin 1 μM, 100 nM, 48 h, without compound 41.6%
  CD38CD4/CD4: 31%

## CC(C)[C@]12O[C@H]1[C@@H]1O[C@]13[C@]1(O[C@H]1C[C@H]1C4=C(CC[C@@]13C)C(=O)OC4)[C@@H]2O [triptolide]
NF-κB
  inhibition of the activity of the NF-κB signal pathway activated by TNF-α: effectively inhibit
  inhibition of the activity of the background NF-κB signaling pathway: effectively inhibit
CD4+T-cells
  inhibition of the proliferation of CD4+T-cells in healthy human peripheral blood: significantly inhibit
MTT cytotoxicity test
  CC50 at 72 h: ~0.017 µg/mL (≈ 0.0472 µM)
CD4+T-cell subsets
  inhibition of immune activation of CD4+T-cell subsets by PMA+Ionomycin (CD38, HLA-DR): significantly inhibit
  inhibition of immune activation of CD4+T-cell subsets by anti-CD3/CD28 antibody (CD38, HLA-DR): significantly inhibit
